# Data from patent US4098798A, “Adriamycins, process for their preparation and uses thereof” (Societa' Farmaceutici Italia S.p.A., priority 1974, dated 1978).
# Where two headings read alike, the source gives them in different places.
# Experiments:
# [1] = system: B-subtilis; assay: inhibition zones on agar-B-subtilis plates, paper disc technique; type: cell-based; conditions: hydrochlorides, read-out: inhibition zone diameter
# [2] = system: Ascites Sarcoma 180; assay: Action on Ascites Sarcoma 180 in mice; type: in vivo, mice (Swiss CD 1); conditions: for Average Survival time: one day after inoculation, untreated = 100%
# Description: The tests were carried out on groups of 10 mice (Swiss CD 1). The compounds under examination were administered intraperitoneally in varying doses to the test animals one day after intraperitoneal inoculation with 1 × 10^6 tumor cells per animal. The average survival time is given in Table 1 as a percentage of the survival time of untreated animals, which is arbitrarily designated as 100%. Also given in Table 1 are the number of long term survivors.
# [3] = system: HeLa cells; assay: Cloning Efficiency of Hela cells in vitro; type: cell-based; conditions: for IC50: Homo sapiens, HeLa, 50% inhibition of colonies
# Description: After treatment for 2,8 or 24 hours, HeLa cells were seeded (200 cells per plate) and the number of colonies determined 8 days later.
# The ID50 represents the dose which gives a 50% of inhibition of colonies.
# [4] = system: Moloney Sarcoma Virus (MSV); assay: MSV foci formation in infected mouse embryo fibroblast cultures (antiviral action); type: cell-based; conditions: 72 h, treatment of 3 days, read-out: Antiviral Action ID50
# Description: (§1) The test compounds were evaluated on mouse embryo fibroblast cultures infected with MSV and on similar uninfected cultures. After a treatment of 3 days, the inhibiting doses (ID50) were evaluated on cell proliferation in uninfected cultures (cytotoxic action) and on MSV foci formation in infected cultures (antiviral action).
# [5] = cell proliferation in uninfected mouse embryo fibroblast cultures (cytotoxic action); type: cell-based; conditions: mouse embryo fibroblasts, treatment of 3 days, read-out: Cytotoxic Action ID50
# Description: as §1
# [6] = system: MSV; assay: Activity on MSV Production, focus assay; type: cell-based, Moloney Sarcoma Virus; conditions: 0.05 γ/ml, 3 days; control 4.7 × 10^4
# Description: MSV infected cultures were treated for 3 days, and the virus yields were determined in the cell and supernatant medium by focus assay in the presence of leukemia virus.
compound,measurement,setting,value
"COc1cccc2c1C(=O)c1c(O)c3c(c(O)c1C2=O)C[C@@](O)(C(=O)CO)C[C@@H]3O[C@H]1C[C@H](N)[C@@H](O)[C@H](C)O1 [4'-Epi-adriamycin (α-anomer), 7-0-(3'-amino-2',3',6'-trideoxy-α-L-arabinohexopyranosyl)-adriamycinone]",zone of inhibition at 5 µg/disc,[1]; 5 μg,19 mm
same,zone of inhibition at 10 µg/disc,[1]; 10 μg,21 mm
same,zone of inhibition at 15 µg/disc,[1]; 15 μg,22 mm
same,zone of inhibition at 20 µg/disc,[1]; 20 μg,23 mm
same,Long Term Survivors (after 60 days),[2]; 0.5 mg/Kg i.p.,0/10
same,Average Survival time,[2]; 0.5 mg/Kg i.p.,135%
same,Long Term Survivors (after 60 days),[2]; 2 mg/Kg i.p.,0/10
same,Average Survival time,[2]; 2 mg/Kg i.p.,184%
same,Long Term Survivors (after 60 days),[2]; 10 mg/Kg i.p.,1/8
same,Average Survival time,[2]; 10 mg/Kg i.p.,234%
same,IC50,"[3]; Table 7, 2h treatment, read-out: DI50 (the source's name)",0.85 µg/mL
same,IC50,"[3]; Table 7, 8h treatment, read-out: DI50 (the source's name)",0.7 µg/mL
same,IC50,"[3]; Table 7, 24h treatment, read-out: DI50 (the source's name)",0.36 µg/mL
same,IC50,"[3]; Table 8, 2h treatment, read-out: DI 50 (the source's name)",5 µg/mL
same,IC50,"[3]; Table 8, 8h treatment, read-out: DI 50 (the source's name)",0.2 µg/mL
same,IC50,"[3]; Table 8, 24h treatment, read-out: DI 50 (the source's name)",0.2 µg/mL
same,Average Number of Colonies,"[3]; Table 7, 0.1 μg/ml, 8h, control 125",158
same,Average Number of Colonies,"[3]; Table 7, 0.1 μg/ml, 24h, control 223",216
same,Average Number of Colonies,"[3]; Table 7, 0.25 μg/ml, 8h, control 125",150
same,Average Number of Colonies,"[3]; Table 7, 0.25 μg/ml, 24h, control 223",199
same,Average Number of Colonies,"[3]; Table 7, 0.5 μg/ml, 8h, control 125",92
same,Average Number of Colonies,"[3]; Table 7, 0.5 μg/ml, 24h, control 223",52
same,Average Number of Colonies,"[3]; Table 7, 1 μg/ml, 2h, control 132",57
same,Average Number of Colonies,"[3]; Table 7, 1 μg/ml, 8h, control 125",36
same,Average Number of Colonies,"[3]; Table 7, 1 μg/ml, 24h, control 223",29
same,Average Number of Colonies,"[3]; Table 8, 0.125 μg/ml, 2h, control 156",245
same,Average Number of Colonies,"[3]; Table 8, 0.125 μg/ml, 8h, control 189",170
same,Average Number of Colonies,"[3]; Table 8, 0.25 μg/ml, 8h, control 189",43
same,Average Number of Colonies,"[3]; Table 8, 0.25 μg/ml, 24h, control 136",46
same,Average Number of Colonies,"[3]; Table 8, 0.5 μg/ml, 2h, control 156",130
same,Average Number of Colonies,"[3]; Table 8, 0.5 μg/ml, 8h, control 189",45
same,Average Number of Colonies,"[3]; Table 8, 0.5 μg/ml, 24h, control 136",38
same,Average Number of Colonies,"[3]; Table 8, 1 μg/ml, 8h, control 189",27
same,Average Number of Colonies,"[3]; Table 8, 1 μg/ml, 24h, control 136",17
COc1cccc2c1C(=O)c1c(O)c3c(c(O)c1C2=O)CC(O)(C(=O)CO)CC3OC1CC(N)C(O)C(C)O1 (stereo not drawn) [4'-Epi-adriamycin],IC50,[4],> 0.006 µg/mL
same,CC50 at 72 h,[5],0.01 µg/mL
same,virus yield (FFU/ml),[6],4 × 10^2 FFU/ml
